From patent US10414739B2, “Compounds as inhibitors of the YAP/TAZ-TEAD interaction and their use in the treatment of malignant mesothelioma” (INVENTIVA, priority 2015, dated 2019)
Counter-ions that a name gives are not always drawn.

Biological target: T1, YAP-TEAD interaction (human YAP2-His6 (50-114) / human TEAD1-GST (209-426)) (Homo sapiens, UniProt P28347)
T1 construct: GST-TEAD1 (209-426) produced in E. coli; made in house; host or cells: E. coli
Assay: YAP-TEAD AlphaLISA assay
Assay type: binding
Details: YAP-TEAD AlphaLISA; for Emax: 2 h, maximal % inhibition, read-out: Max Act.; for IC50: 2 h equilibration at room temperature
Protocol: YAP-TEAD AlphaLISA Assay for IC50 Value Determination.
YAP-TEAD binding and inhibition was assessed by monitoring the engagement of YAP2 peptide (human YAP2-His6 (50-114) produced in E. coli) with TEAD (human TEAD1-GST (GST-TEAD1 (209-426) produced in E. coli) using the AlphaLisa technology (Perkin-Elmer). Specifically, in a 384 well (Axygen) 5 μl of compounds were dispensed in 100% DMSO following a semi log serial dilution, with a top concentration of […] (10 concentrations). A ‘3 partners solution’ was prepared by mixing AlphaScreen Glutathione Donor beads 15 μg/ml (PerkinElmer), Anti-6×His AlphaLisA Acceptor beads 15 μg/ml (PerkinElmer) and Human YAP2 9 nM in 100 mM NaCl, 25 mM Hepes, 0.1% BSA, 0.5% NoNidet®P40 buffer. In the 384 assay plate (Proxiplate, Perkin-Elmer)) 2 μl of compound at each concentration, 6 μl of buffer, 6 μl of hTEAD1-GST 9 nM and 6 μl of ‘3 partner solution’ were mixed. After 2 h equilibration at room temperature in the dark the plates were read on an Envision instrument (Excitation @ 680 nm/Emission @ 570 nm, Perkin Elmer).
Results were expressed as % inhibition=100×((HighControl−Cpd)/(HighControl−LowControl)), were High control is the maximum response obtained with all components and Low control is the basal response obtained with all components without GST-Tead1.
Cpd is the response obtained for test compounds.
IC50 (half maximal inhibitory concentration) was determined by fitting the concentration response curves using a 3-parameter curve fit equation and determining concentration corresponding to 50% inhibition.

T1 sequence (P28347 209-426): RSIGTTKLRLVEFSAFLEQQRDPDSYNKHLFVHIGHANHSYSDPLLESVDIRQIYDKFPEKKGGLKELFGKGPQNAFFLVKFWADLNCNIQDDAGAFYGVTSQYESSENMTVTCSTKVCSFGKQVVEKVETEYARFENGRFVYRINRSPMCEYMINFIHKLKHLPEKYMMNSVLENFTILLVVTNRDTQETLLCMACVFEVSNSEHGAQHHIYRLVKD

| Structure (SMILES) | Emax [%] | IC50 [nM] |
| --- | --- | --- |
| COc1cc(/C=N/N(CCN2CCOCC2)C2=NS(=O)(=O)c3ccccc32)ccc1O [Example 4, 4-[(E)-[(1,1-dioxo-1,2-benzothiazol-3-yl)-(2-morpholinoethyl)hydrazono]methyl]-2-methoxy-phenol hydrochloride] | 97 | 615 |
| COc1cc(/C=N/N(CCCN(C)C)C2=NS(=O)(=O)c3ccccc32)ccc1O [Example 6, 4-[(E)-[3-(dimethylamino)propyl-(1,1-dioxo-1,2-benzothiazol-3-yl)hydrazono]methyl]-2-methoxy-phenol hydrochloride] | 95 | 7040 |
| COc1cc(/C=N/N(CC(=O)NCCO)C2=NS(=O)(=O)c3ccccc32)ccc1O [Example 9, 2-[(1,1-dioxo-1,2-benzothiazol-3-yl)-[(E)-(4-hydroxy-3-methoxy-phenyl)methyleneamino]amino]-N-(2-hydroxyethyl)acetamide] | 96 | 11600 |
| COCCCN(/N=C/c1ccc(O)c(OC)c1)C1=NS(=O)(=O)c2ccccc21 [Example 10] | 92 | 5000 |
| COc1ccc2c(c1)C(N(CCN1CCOCC1)/N=C/c1ccc(O)c(OC)c1)=NS2(=O)=O [Example 12, 2-methoxy-4-[(E)-[(5-methoxy-1,1-dioxo-1,2-benzothiazol-3-yl)-(2-morpholinoethyl)hydrazono]methyl]phenol] | 95 | 583 |
| COc1ccc2c(c1)C(N(CCCN1CCOCC1)/N=C/c1ccc(O)c(OC)c1)=NS2(=O)=O [Example 13, 2-methoxy-4-[(E)-[(5-methoxy-1,1-dioxo-1,2-benzothiazol-3-yl)-(3-morpholinopropyl)hydrazono]methyl]phenol hydrochloride] | 95 | 2120 |
| COc1cc(OC)c2c(c1)C(N(C)/N=C/c1ccc(O)c(OC)c1)=NS2(=O)=O [Example 16, 4-[(E)-[(5,7-dimethoxy-1,1-dioxo-1,2-benzothiazol-3-yl)-methyl-hydrazono]methyl]-2-methoxy-phenol] | 86 | 95 |
| COc1cc(OC)c2c(c1)C(N(CCO)/N=C/c1ccc(O)c(OC)c1)=NS2(=O)=O [Example 17, 4-[(E)-[(5,7-dimethoxy-1,1-dioxo-1,2-benzothiazol-3-yl)-(2-hydroxyethyl) hydrazono]methyl]-2-methoxy-phenol] | 90 | 150 |
| COc1cc(OC)c2c(c1)C(N(CCN1CCOCC1)/N=C/c1ccc(O)c(OC)c1)=NS2(=O)=O [Example 18, 4-[(E)-[(5,7-dimethoxy-1,1-dioxo-1,2-benzothiazol-3-yl)-(2-morpholino-ethyl)hydrazono]methyl]-2-methoxy-phenol hydrochloride] | 97 | 84 |
| COCCN(/N=C/c1ccc(O)c(OC)c1)C1=NS(=O)(=O)c2c(OC)cc(OC)cc21 [Example 19, 4-[(E)-[(5,7-dimethoxy-1,1-dioxo-1,2-benzothiazol-3-yl)-(2-methoxyethyl) hydrazono]methyl]-2-methoxy-phenol] | 92 | 626 |
| COc1cc(/C=N/N(C)C2=NS(=O)(=O)c3c(OC)cccc32)ccc1O [Example 21, 2-methoxy-4-[(E)-[(7-methoxy-1,1-dioxo-1,2-benzothiazol-3-yl)-methyl-hydrazono]methyl]phenol] | 89 | 123 |
| COc1cc(/C=N/N(CCN2CCOCC2)C2=NS(=O)(=O)c3c(OC)cccc32)ccc1O [Example 23, 2-methoxy-4-[(E)-[(7-methoxy-1,1-dioxo-1,2-benzothiazol-3-yl)-(2-morpholinoethyl)hydrazono]methyl]phenol hydrochloride] | 99 | 305 |
| COCCN(/N=C/c1ccc(O)c(OC)c1)C1=NS(=O)(=O)c2c(OC)cccc21 [Example 24, 2-methoxy-4-[(E)-[(7-methoxy-1,1-dioxo-1,2-benzothiazol-3-yl)-(2-methoxyethyl)hydrazono]methyl]phenol] | 92 | 902 |
| COCCN(/N=C/c1ccc(O)c(OC)c1)C1=NS(=O)(=O)c2c(OC)cc(C)cc21 [Example 30, 2-methoxy-4-[(E)-[2-methoxyethyl-(7-methoxy-5-methyl-1,1-dioxo-1,2-benzothiazol-3-yl)hydrazono]methyl]phenol] | 90 | 878 |
| COc1cc(/C=N/N(C)C2=NS(=O)(=O)c3c(OC)cc(C)cc32)ccc1O [Example 31, 2-methoxy-4-[(E)-[(7-methoxy-5-methyl-1,1-dioxo-1,2-benzothiazol-3-yl)-methyl-hydrazono]methyl]phenol] | 92 | 131 |
| COc1cc(/C=N/N(CCN2CCOCC2)C2=NS(=O)(=O)c3c(OC)cc(C)cc32)ccc1O [Example 32, 2-methoxy-4-[(E)-[(7-methoxy-5-methyl-1,1-dioxo-1,2-benzothiazol-3-yl)-(2-morpholinoethyl)hydrazono]methyl]phenol hydrochloride] | 95 | 139 |

Now from value to compound:

| Emax [%] | IC50 [nM] | Structure (SMILES) |
| --- | --- | --- |
| 88 | 5000 | CCN(/N=C/c1ccc(O)c(OC)c1)C1=NS(=O)(=O)c2ccccc21 [Example 3, 4-[(E)-[(1,1-dioxo-1,2-benzothiazol-3-yl)-ethyl-hydrazono]methyl]-2-methoxy-phenol] |
| 88 | 5500 | COc1cc(/C=N/N(CCCO)C2=NS(=O)(=O)c3ccccc32)ccc1O [Example 5, 4-[(E)-[(1,1-dioxo-1,2-benzothiazol-3-yl)-(3-hydroxypropyl)hydrazono]-methyl]-2-methoxy-phenol] |
| 94 | 1100 | COc1cc(/C=N/N(CCC(=O)O)C2=NS(=O)(=O)c3ccccc32)ccc1O [Example 8, 3-[(1,1-dioxo-1,2-benzothiazol-3-yl)-[(E)-(4-hydroxy-3-methoxy-phenyl)methyleneamino]amino]propanoic acid] |
| 94 | 475 | COc1ccc2c(c1)C(N(CCO)/N=C/c1ccc(O)c(OC)c1)=NS2(=O)=O [Example 11, 4-[(E)-[2-hydroxyethyl-(5-methoxy-1,1-dioxo-1,2-benzothiazol-3-yl) hydrazono]methyl]-2-methoxy-phenol] |
| 90 | 1630 | COc1ccc2c(c1)C(N(CCCO)/N=C/c1ccc(O)c(OC)c1)=NS2(=O)=O [Example 14, 4-[(E)-[3-hydroxypropyl-(5-methoxy-1,1-dioxo-1,2-benzothiazol-3-yl) hydrazono]methyl]-2-methoxy-phenol] |
| 89 | 2890 | COCCN(/N=C/c1ccc(O)c(OC)c1)C1=NS(=O)(=O)c2ccc(OC)cc21 [Example 15, 2-methoxy-4-[(E)-[(5-methoxy-1,1-dioxo-1,2-benzothiazol-3-yl)-(2-methoxyethyl)hydrazono]methyl]phenol] |
| 97 | 83 | COc1cc(/C=N/N(CCO)C2=NS(=O)(=O)c3c(OC)cccc32)ccc1O [Example 22, 4-[(E)-[2-hydroxyethyl-(7-methoxy-1,1-dioxo-1,2-benzothiazol-3-yl) hydrazono]methyl]-2-methoxy-phenol] |
| 90 | 568 | COc1cc(/C=N/N(C)C2=NS(=O)(=O)c3ccc(C)cc32)ccc1O [Example 25, 2-methoxy-4-[(E)-[methyl-(5-methyl-1,1-dioxo-1,2-benzothiazol-3-yl)hydrazono]methyl]phenol] |
| 95 | 399 | COc1cc(/C=N/N(CCN2CCOCC2)C2=NS(=O)(=O)c3ccc(C)cc32)ccc1O [Example 26, 2-methoxy-4-[(E)-[(5-methyl-1,1-dioxo-1,2-benzothiazol-3-yl)-(2-morpholinoethyl)hydrazono]methyl]phenol hydrochloride] |
| 91 | 891 | COc1cc(/C=N/N(CCO)C2=NS(=O)(=O)c3ccc(C)cc32)ccc1O [Example 27, 4-[(E)-[2-hydroxyethyl-(5-methyl-1,1-dioxo-1,2-benzothiazol-3-yl)hydrazono]methyl]-2-methoxy-phenol] |
| 94 | 2650 | COCCN(/N=C/c1ccc(O)c(OC)c1)C1=NS(=O)(=O)c2ccc(C)cc21 [Example 28, 2-methoxy-4-[(E)-[2-methoxyethyl-(5-methyl-1,1-dioxo-1,2-benzothiazol-3-yl) hydrazono]methyl]phenol] |
| 91 | 130 | COc1cc(/C=N/N(CCO)C2=NS(=O)(=O)c3c(OC)cc(C)cc32)ccc1O [Example 29, 4-[(E)-[2-hydroxyethyl-(7-methoxy-5-methy-1,1-dioxo-1,2-benzothiazol-3-yl) hydrazono]methyl]-2-methoxy-phenol] |
| 90 | 766 | COc1cc(/C=N/N(C)C2=NS(=O)(=O)c3cc(C)ccc32)ccc1O [Example 33, 2-methoxy-4-[(E)-[methyl-(6-methyl-1,1-dioxo-1,2-benzothiazol-3-yl)hydrazono]methyl]phenol] |
